Measured values as given in patent publication US20090215895A1, “Therapeutic and carrier molecules” (PEPLIN BIOLIPIDS PTY LTD, priority 2004, published 2009).
“Also recorded” adds a separate entry of the source.

Experiments:
E-selectin = assay: Adhesion molecule expression on HUVEC (ELISA, mRNA slot blot); type: cell-based, human; conditions: for Suppression of TNF-α-induced E-selectin expression on HUVEC: 60 min pre-treatment
Experimental: FIG. 13 is a representation showing effect of MP3 (β-oxa-23:4n-6) and 20:4n-6 on time-related changes in TNF-α-induced E-selectin, ICAM-1 and VCAM-1 expression on HUVEC. HUVEC were pre-treated with 20 μmol/l β-oxa-23:4n-6 (closed triangles), 20 μmol/l 20:4n-6 (open squares), or DPC (control) for 60 min and then further incubated with TNF-α (125 U/200 μl medium) for up to 24 hr. The expression of E-selectin, ICAM-1 and VCAM-1 adhesion molecules was determined by ELISA. The results are expressed as % of control and represent the mean±SEM of three separate experiments each performed in triplicate. * p<0.05, **p<0.01, ***p<0.001, for significant differences between pre-treatment with fatty acid and corresponding control at a particular time point (one-way analysis of variance followed by the Dunnett test for multiple comparisons). Inset: The effect of β-oxa-23:4n-6 on TNF-α-induced expression of E-selectin mRNA in HUVEC. HUVEC were pre-incubated with β-oxa-23:4n-6 (20 μmol/l) or DPC (control) in 1 ml of medium at 37° C. for 60 min. After the addition of TNF-α, the cells were further incubated at 37° C. for 2 hr. E-selectin mRNA expression was then determined and the results expressed as relative %. Results are the mean±SEM of three separate experiments each performed in quadruplicate. *p<0.0001, for significant differences between pre-treatment with β-oxa-23:4n-6, and control (two-tailed Student's t-test for unpaired data).
HUVEC were stimulated with TNF, bacterial lipopolysaccharide (LPS) or PMA for 24 hr. Expression of E-selectin, ICAM-1 and VCAM-1 was determined by an enzyme-linked immunosorbent assay (ELISA) or as mRNA using a slot blot technique (Huang et al 1997 supra).

ERK = assay: TNF-stimulated MAP kinase activity in HUVEC; type: cell-based, human; conditions: HUVEC pre-treated with the fatty acid
Experimental: (§1) ERK and p38 were precipitated with anti-ERK2 (C-14, sc-154) and anti-p38 (C-20, sc-535) antibody, respectively (Santa Cruz Biotech) and the activity determined using myelin basic protein as a substrate (Hii et al, 1995 supra, Hii et al, 1998 supra). JNK activity was determined in a solid phase assay using GST c-Jun (residues-1-79) as a substrate (Hii et al, 1995 supra, Hii et al, 1998 supra).

p38 = assay: TNF-stimulated MAP kinase activity in HUVEC; type: cell-based, human; conditions: HUVEC pre-treated with the fatty acid
Experimental: as §1

JNK = assay: TNF-stimulated MAP kinase activity in HUVEC; type: cell-based, human; conditions: HUVEC pre-treated with the fatty acid
Experimental: as §1

neutrophil NADPH oxidase = assay: Neutrophil respiratory burst (NADPH oxidase activation, chemiluminescence); type: cell-based, human; conditions: human neutrophils, up to 30 μmol/l
Experimental: The structure of PT2 is shown in (c) above. In this screening assay, neutrophils were prepared from the blood of healthy volunteers. Freshly collected blood was layered onto a Hypaque-Ficoll medium of density 1.114 and centrifuged at 400 g for 30 mins at room temperature. After centrifugation, the leukocytes resolved into two distinct bands, with neutrophils being present in the second band (Ferrante and Thong, J. Immun. Methods 48:81-85, 1982).
Activation of the neutrophil NADPH oxidase was measured by lucigenin-dependent chemiluminescence following a 10 min incubation of PT2 (20 μM, final concentration) with 1×10^6 neutrophils from different donors (Power et al, J. Immunol. 159:2952-2959, 1997). Arachidonic acid (20:4, n-6) was used as a positive stimulator of the oxidase
Neutrophil respiratory burst was determined as previously described (Li et al, J. Clin. Invest. 97:1605-1609, 1996).

IκBα = assay: TNF-induced degradation of IκBα in HUVEC (Western blot); type: cell-based; conditions: Homo sapiens, 20 μmol/l, 30 min pre-treatment, TNF 10 min
Experimental: FIG. 17 is a representation showing (A) the effect of MP3 (β-oxa 23:4n-6) and DHA on TNF-induced degradation of IκBα in HUVEC. Cells were pre-treated with the fatty acids (20 μmol/l) for 30 min and then stimulated with TNF (125 U/ml) for 10 min. After cell lysis the proteins were analyzed by Western blots using anti-IκBα antibodies. (B) The effects of β-oxa-23:4n-6 on TNF-induced activation of transcriptional factor, NFκB in HUVEC. Cells were pre-treated with β-oxa-23:4n-6 (20 μmol/l) for 30 min and then stimulated with TNF for 2 hr. After cell lysis, nuclear fractions were prepared, nuclear proteins separated by SDS PAGE (12% w/v gel), transferred to nitrocellulose and probed with an anti-NFκB p65 antibody (Santa Cruz). […] (C) The effect of β-oxa 23:4n-6 on TNF-stimulated activation of IKK. Cells were pre-treated with β-oxa 23:4n-6 (20 μmol/l) for 30 min and then stimulated with TNF for 5 min. After cell lysis IKK was immunoprecipitated with anti-IKKα antibody and kinase activity determined. […]
Proteins (50 μg) were separated by SDS PAGE (12% w/v gel), transferred to nitrocellulose and probed with an anti-NFκB p65 or anti-IκBα antibody (Santa Cruz Biotech, Santa Cruz, Calif.). Immunocomplexes were detected by enhanced chemiluminescence (Hii et al, 1998 supra).

Compound: CCCCC/C=C\C/C=C\C/C=C\C/C=C\CCCCOCC(=O)O [MP3, β-oxa-23:4n-6]
- TNF-α-induced expression of E-selectin mRNA (E-selectin; 20 μmol/l, 60 min, TNF-α 2 hr): substantially depressed
- Suppression of TNF-α-induced E-selectin expression on HUVEC (E-selectin; 20 μmol/l): better than docosahexaenoic acid (22:6n-3) at suppressing
- Suppression of TNF-α-induced E-selectin expression on HUVEC (E-selectin; 20 μmol/l, listed as β-oxa-23:4n-6): inhibited the expression
- Time of cytokine treatment at maximum inhibition of E-selectin expression (E-selectin; 20 μmol/l, TNF-α): 4 h
- Inhibition of LPS and PMA-induced up-regulation of E-selectin (E-selectin; HUVEC): inhibited LPS and PMA-induced, up-regulation
- Effect on ability of TNF to stimulate ERK (ERK): did not affect
- Effect on ability of TNF to stimulate p38 (p38): did not affect
- Effect on ability of TNF to stimulate JNK (JNK): did not affect
- Stimulation of the neutrophil respiratory burst (chemiluminescence response) (neutrophil NADPH oxidase): relatively poor at stimulating this response; also recorded: failed to cause any significant respiratory burst
- inhibition at 20 µM (IκBα): > 92%
